This is an account of results in the NIST ThermoML archive (doi:10.1016/j.tca.2014.05.034).

Molecules are shown by their SMILES. Numbers after ± are expanded uncertainties.

The conditions of data set [1]: 100 kPa, Liquid; for kinematic viscosity: Capillary tube (Ostwald / Ubbelohde) method; for mass density: Pycnometric method.
The nature of data set [2]: xn = mol fraction of the nth substance listed. The following applies: 100 kPa, Liquid, x2 = 0; for kinematic viscosity: Capillary tube (Ostwald / Ubbelohde) method; for mass density: Pycnometric method.

As usually defined, the mass density is the mass of a sample divided by its volume. On to `OCCOCCO` [diethylene glycol], for which the kinematic viscosity came to 2.47e-05 ± 2e-07 m2/s in data set [1] (298.15 K); 1.96e-05 ± 2e-07 m2/s in data set [1] (303.15 K); 1.53e-05 ± 1e-07 m2/s in data set [1] (308.15 K); 1.29e-05 ± 1e-07 m2/s in data set [1] (313.15 K); 1.1e-05 ± 1e-07 m2/s in data set [1] (318.15 K). Besides, the mass density worked out at 1112.8 ± 0.7 kg/m3 in data set [1] (298.15 K); 1109.2 ± 0.7 kg/m3 in data set [1] (303.15 K); 1105.6 ± 0.7 kg/m3 in data set [1] (308.15 K); 1102.3 ± 0.7 kg/m3 in data set [1] (313.15 K); 1099.2 ± 0.7 kg/m3 in data set [1] (318.15 K).
Take `OCCOCCO` [diethylene glycol] + NCCN: the kinematic viscosity in data set [2] (298.15 K) was determined as 2.47e-05 ± 2e-07 m2/s; in data set [2] (303.15 K) it was 1.96e-05 ± 2e-07 m2/s; in data set [2] (308.15 K), 1.53e-05 ± 1e-07 m2/s; in data set [2] (313.15 K), 1.29e-05 ± 1e-07 m2/s; in data set [2] (318.15 K), 1.1e-05 ± 1e-07 m2/s. Besides, the mass density worked out at 1112.8 ± 0.7 kg/m3 in data set [2] (298.15 K); 1109.2 ± 0.7 kg/m3 in data set [2] (303.15 K); 1105.6 ± 0.7 kg/m3 in data set [2] (308.15 K); 1102.3 ± 0.7 kg/m3 in data set [2] (313.15 K); 1099.2 ± 0.7 kg/m3 in data set [2] (318.15 K).
In the case of `NCCN` [ethane-1,2-diamine], the kinematic viscosity in data set [1] (298.15 K) turned out to be 1.56e-06 ± 1e-08 m2/s; in data set [1] (303.15 K), 1.39e-06 ± 1e-08 m2/s; in data set [1] (308.15 K), 1.27e-06 ± 1e-08 m2/s; in data set [1] (313.15 K) it was 1.17e-06 ± 1e-08 m2/s; in data set [1] (318.15 K) it was 1.08e-06 ± 1e-08 m2/s. The mass density is given as 893.3 ± 0.7 kg/m3 in data set [1] (298.15 K); 888.8 ± 0.7 kg/m3 in data set [1] (303.15 K); 884.9 ± 0.7 kg/m3 in data set [1] (308.15 K); 880 ± 0.7 kg/m3 in data set [1] (313.15 K); 875.2 ± 0.7 kg/m3 in data set [1] (318.15 K).
